{
  "source": "patent US9481654B2",
  "about": "“Compositions and methods for inhibition of the JAK pathway” (Rigel Pharmaceuticals, Inc., priority 2006, dated 2016)",
  "data": [
    {"tested_on": "IFNγ induced ICAM-1 (CD54) up-regulation in A549 lung epithelial cells (JAK/Stat pathway)", "assay": "A549 Epithelial Line Stimulated with IFNγ (ICAM-1 surface expression, flow cytometry)", "assay_type": "cell-based, human", "conditions": "Homo sapiens, A549, Table III Example 5", "source_text": "(§1) The activity of the compounds of the invention may additionally be characterized by assaying the effect of the 2,4-pyrimidinediamine compounds described herein on A549 lung epithelial cells and U937 cells. A549 lung epithelial cells and U937 cells up-regulate ICAM-1 (CD54) surface expression in response to a variety of different stimuli. Therefore, using ICAM-1 expression as readout, test compound effects on different signaling pathways can be assessed in the same cell type. Stimulation with IL-1β through the IL-1β receptor activates the TRAF6/NFκB pathway resulting in up-regulation of ICAM-1. IFNγ induces ICAM-1 up-regulation through activation of the JAK1/JAK2 pathway. The up-regulation of ICAM-1 can be quantified by flow cytometry across a compound dose curve and EC50 values are calculated. Exemplary assays of this type are described in greater detail in Examples 5 and 6.\n(§2) A549 lung epithelial cells up-regulate ICAM-1 (CD54) surface expression in response to a variety of different stimuli. Therefore, using ICAM-1 expression as readout, compound effects on different signaling pathways can be assessed in the same cell type. IFNγ up-regulates ICAM-1 through activation of the JAK/Stat pathway. In this example, the up-regulation of ICAM-1 by IFNγ was assessed.\n(§3) The A549 lung epithelial carcinoma cell line originated from the American Type Culture Collection. Routine culturing was with F12K media (Mediatech Inc., Lenexa, Kans., Cat. No. 10-025-CV) with 10% fetal bovine serum, 100 I.U. penicillin and […] streptomycin (complete F12k media). Cells were incubated in a humidified atmosphere of 5% CO2 at 37° C. Prior to use in the assay, A549 cells were washed with PBS and trypsinized (Mediatech Inc., Cat. No. 25-052-CI) to lift the cells. The trypsin cell suspension was neutralized with complete F12K media and centrifuged to pellet the cells. The cell pellet was resuspended in complete F12K media at a concentration of 2.0×10^5/mL. Cells were seeded at 20,000 per well, 100 μL total volume, in a flat bottom tissue culture plate and allowed to adhere overnight.\n(§4) On day two, A549 cells were pre-incubated with a 2,4-pyrimidinediamine test compound or DMSO (control) (Sigma-Aldrich, St. Louis, Mo., Catalog No. D2650) for 1 hour. The cells were then stimulated with IFNγ (75 ng/mL) (Peprotech Inc., Rocky Hill, N.J., Cat. No. 300-02) and allowed to incubate for 24 hours. The final test compound dose range was 30 μM to 14 nM in 200 μL F12K media containing 5% FBS, 0.3% DMSO.\n(§5) On day three, the cell media was removed and the cells were washed with 200 μL PBS (phosphate buffered saline). Each well was trypsinized to dissociate the cells, then neutralized by addition of 200 μL complete F12K media. Cells were pelleted and stained with an APC conjugated mouse anti-human ICAM-1 (CD54) (BD Pharmingen, San Diego, Calif., Catalog #559771) antibody for 20 minutes at 4° C. Cells were washed with ice cold FACS buffer (PBS+2% FBS) and surface ICAM-1 expression was analyzed by flow cytometry. Detection was performed using a BD LSR I System Flow Cytometer, purchased from BD Biosciences of San Jose, Calif. Events were gated for live scatter and the geometric mean was calculated (Becton-Dickinson CellQuest software version 3.3, Franklin Lakes, N.J.). Geometric means were plotted against the compound concentration to generate a dose response curve.", "units": {"IC50": "µM"}, "values": [
      {"smiles": "C#CCNS(=O)(=O)Cc1ccc(Nc2nc(Nc3cccc(S(N)(=O)=O)c3)ncc2F)cc1", "note": "[Compound I-4, N2-(3-Aminosulfonylphenyl)-5-fluoro-N4-[4-(prop-2-ynylaminosulfonylmethyl)phenyl]-2,4-pyrimidinediamine]", "IC50": 18.2}
    ]},
    {"tested_on": "IFNγ induced ICAM-1 (CD54) up-regulation in A549 lung epithelial cells (JAK/Stat pathway)", "assay": "A549 Epithelial Line Stimulated with IFNγ (ICAM-1 surface expression, flow cytometry)", "assay_type": "cell-based, human", "conditions": "Table III Example 5", "source_text": "as §1, §2, §3, §4, §5", "units": {"IC50": "µM"}, "values": [
      {"smiles": "CCCNS(=O)(=O)c1cccc(Nc2ncc(C)c(Nc3ccc(CNS(=O)(=O)C4CC4)cc3)n2)c1", "note": "[Compound I-178, N4-(4-cyclopropylsulfonylaminomethyl)phenyl-5-methyl-N2-(3-propylaminosulfonyl)phenyl-2,4-pyrimidinediamine]", "IC50": 5.45},
      {"smiles": "Cc1ccc(Nc2ncc(F)c(Nc3ccc(CNS(=O)(=O)CC(F)(F)F)cc3)n2)cc1S(N)(=O)=O", "note": "[Compound I-50, N2-(3-aminosulfonyl-4-methyl)phenyl-5-fluoro-N4-(4-trifluoroethylsulfonylaminomethyl)phenyl-2,4-pyrimidinediamine]", "IC50": 9.35},
      {"smiles": "CCS(=O)(=O)NCCc1ccc(Nc2nc(Nc3ccc(C)c(S(N)(=O)=O)c3)ncc2C)cc1", "note": "[Compound I-40, N2-(3-aminosulfonyl-4-methyl)phenyl-N4-[4-(2-ethylsulfonylamino)ethyl]phenyl-5-methyl-2,4-pyrimidinediamine]", "IC50": 3.49},
      {"smiles": "Cc1cnc(Nc2cccc(S(=O)(=O)NCC3CC3)c2)nc1Nc1ccc(CNS(=O)(=O)C2CC2)cc1", "note": "[Compound I-180, N2-(3-cyclopropylmethylaminosulfonyl)phenyl-N4-(4-cyclopropylsulfonylaminomethyl)phenyl-5-methyl-2,4-pyrimidinediamine]", "IC50": 2.22},
      {"smiles": "Cc1ccc(Nc2ncc(Cl)c(Nc3ccc(CNS(=O)(=O)C4CC4)cc3)n2)cc1S(N)(=O)=O", "note": "[Compound I-113, N2-(3-aminosulfonyl-4-methyl)phenyl-5-chloro-N4-(4-cyclopropylsulfonylaminomethyl)phenyl-2,4-pyrimidinediamine]", "IC50": 0.888},
      {"smiles": "NS(=O)(=O)c1ccc(Nc2ncc(F)c(Nc3ccc(CNS(=O)(=O)C4CCCCC4)cc3)n2)cc1", "note": "[Compound I-71, N2-(4-aminosulfonyl)phenyl-N4-(4-cyclohexylsulfonylaminomethyl)phenyl-5-fluoro-2,4-pyrimidinediamine]", "IC50": 10.5},
      {"smiles": "CCCN(Cc1ccc(Nc2nc(Nc3cccc(S(N)(=O)=O)c3)ncc2C)cc1)S(=O)(=O)C1CC1", "note": "[Compound I-80, N2-(3-aminosulfonyl)phenyl-N4-[4-(N-cyclopropylsulfonyl-N-propylamino)methyl]phenyl-5-methyl-2,4-pyrimidinediamine]", "IC50": 4.13},
      {"smiles": "CCS(=O)(=O)N[C@@H](C)c1ccc(Nc2nc(Nc3cccc(S(N)(=O)=O)c3)ncc2F)cc1", "note": "[Compound I-27, N2-(3-aminosulfonyl)phenyl-N4-[4-(1S-ethylsulfonylamino)ethyl]phenyl-5-fluoro-2,4-pyrimidinediamine]", "IC50": 5.84},
      {"smiles": "Cc1ccc(Nc2ncc(C)c(Nc3ccc(CNS(=O)(=O)C4CC4)cc3)n2)cc1S(N)(=O)=O", "note": "[Compound I-47, N2-(3-aminosulfonyl-4-methyl)phenyl-N4-(4-cyclopropylsulfonylaminomethyl)phenyl-5-methyl-2,4-pyrimidinediamine]", "IC50": 2.89},
      {"smiles": "NS(=O)(=O)c1cccc(Nc2ncc(Cl)c(Nc3ccc(CNS(=O)(=O)C4CC4)cc3)n2)c1", "note": "[Compound I-114, N2-(3-aminosulfonyl)phenyl-5-chloro-N4-(4-cyclopropylsulfonylaminomethyl)phenyl-2,4-pyrimidinediamine]", "IC50": 5.65},
      {"smiles": "CCCNS(=O)(=O)c1cc(Nc2ncc(C)c(Nc3ccc(CNS(=O)(=O)C4CC4)cc3)n2)ccc1C", "note": "[Compound I-187, N4-(4-cyclopropylsulfonylaminomethyl)phenyl-5-methyl-N2-(4-methyl-3-propylaminosulfonyl)phenyl-2,4-pyrimidinediamine]", "IC50": 2.42},
      {"smiles": "CCNS(=O)(=O)c1cccc(Nc2ncc(C)c(Nc3ccc(CNS(=O)(=O)C4CC4)cc3)n2)c1", "note": "[Compound I-176, N4-(4-cyclopropylsulfonylaminomethyl)phenyl-N2-(3-ethylaminosulfonyl)phenyl-5-methyl-2,4-pyrimidinediamine]", "IC50": 10.4},
      {"smiles": "NS(=O)(=O)c1cccc(Nc2ncc(F)c(Nc3ccc(CNS(=O)(=O)CC(F)(F)F)cc3)n2)c1", "note": "[Compound I-49, N2-(3-aminosulfonyl)phenyl-5-fluoro-N4-(4-trifluoroethylsulfonylaminomethyl)phenyl-2,4-pyrimidinediamine]", "IC50": 78.9},
      {"smiles": "CNS(=O)(=O)c1cccc(Nc2ncc(C)c(Nc3cccc(CNS(=O)(=O)C4CC4)c3)n2)c1", "note": "[Compound I-162, N4-(3-cyclopropylsulfonylaminomethyl)phenyl-5-methyl-N2-(3-methylaminosulfonyl)phenyl-2,4-pyrimidinediamine]", "IC50": 1.92},
      {"smiles": "Cc1ccc(Nc2ncc(C)c(Nc3ccc(CNS(=O)(=O)C(C)C)cc3)n2)cc1S(N)(=O)=O", "note": "[Compound I-117, N2-(3-aminosulfonyl-4-methyl)phenyl-N4-(4-isopropylsulfonylaminomethyl)phenyl-5-methyl-2,4-pyrimidinediamine]", "IC50": 2.17},
      {"smiles": "NS(=O)(=O)c1ccc(Nc2ncc(F)c(Nc3ccc(CNS(=O)(=O)C4CCCC4)cc3)n2)cc1", "note": "[Compound I-68, N2-(4-aminosulfonyl)phenyl-N4-(4-cyclopentylsulfonylaminomethyl)phenyl-5-fluoro-2,4-pyrimidinediamine]", "IC50": 4.95},
      {"smiles": "CCS(=O)(=O)NCCc1ccc(Nc2nc(Nc3ccc(C)c(S(N)(=O)=O)c3)ncc2F)cc1", "note": "[Compound I-16, N2-(3-aminosulfonyl-4-methyl)phenyl-N4-[4-(2-ethylsulfonylamino)ethyl]phenyl-5-fluoro-2,4-pyrimidinediamine]", "IC50": 9.01},
      {"smiles": "NS(=O)(=O)c1ccc(Nc2ncc(F)c(Nc3ccc(CNS(=O)(=O)CC(F)(F)F)cc3)n2)cc1", "note": "[Compound I-48, N2-(4-aminosulfonyl)phenyl-5-fluoro-N4-(4-trifluoroethylsulfonylaminomethyl)phenyl-2,4-pyrimidinediamine]", "IC50": 29.9},
      {"smiles": "Cc1ccc(Nc2ncc(F)c(Nc3ccc(CNS(=O)(=O)C4CCCC4)cc3)n2)cc1S(N)(=O)=O", "note": "[Compound I-70, N2-(3-aminosulfonyl-4-methyl)phenyl-N4-(4-cyclopentylsulfonylaminomethyl)phenyl-5-fluoro-2,4-pyrimidinediamine]", "IC50": 2.58},
      {"smiles": "COCCNS(=O)(=O)c1cc(Nc2ncc(C)c(Nc3ccc(CNS(=O)(=O)C4CC4)cc3)n2)ccc1C", "note": "[Compound I-190, N4-(4-cyclopropylsulfonylaminomethyl)phenyl-N2-[3-(2-methoxyethyl)aminosulfonyl-4-methyl]phenyl-5-methyl-2,4-pyrimidinediamine]", "IC50": 1.36},
      {"smiles": "CCS(=O)(=O)N[C@H](C)c1ccc(Nc2nc(Nc3cccc(S(N)(=O)=O)c3)ncc2F)cc1", "note": "[Compound I-30, N2-(3-aminosulfonyl)phenyl-N4-[4-(1R-ethylsulfonylamino)ethyl]phenyl-5-fluoro-2,4-pyrimidinediamine]", "IC50": 6.1},
      {"smiles": "Cc1ccc(Nc2ncc(F)c(Nc3cccc(CNS(=O)(=O)C4CC4)c3)n2)cc1S(N)(=O)=O", "note": "[Compound I-34, N2-(3-aminosulfonyl-4-methyl)phenyl-N4-(3-cyclopropylsulfonylaminomethyl)phenyl-5-fluoro-2,4-pyrimidinediamine]", "IC50": 5.7},
      {"smiles": "Cc1ccc(Nc2ncc(F)c(Nc3ccc(CNS(=O)(=O)c4cccs4)cc3)n2)cc1S(N)(=O)=O", "note": "[Compound I-37, N2-(3-aminosulfonyl-4-methyl)phenyl-5-fluoro-N4-[4-(thiophen-2-yl)sulfonylaminomethyl]phenyl-2,4-pyrimidinediamine]", "IC50": 27.7},
      {"smiles": "Cc1cnc(Nc2cccc(S(=O)(=O)NC(C)C)c2)nc1Nc1ccc(CNS(=O)(=O)C2CC2)cc1", "note": "[Compound I-173, N4-(4-cyclopropylsulfonylaminomethyl)phenyl-N2-(3-isopropylaminosulfonyl)phenyl-5-methyl-2,4-pyrimidinediamine]", "IC50": 1.88}
    ]}
  ]
}
